Like-named read-outs stand apart in the source and are kept apart here.
How the values were obtained:
[1] = biological target: T1, T. cruzi glucokinase (TcGlcK) (Trypanosoma cruzi, UniProt Q4E4E1); type: biochemical; conditions: for TcGlcK selectivity ratio: Ki (HsHxKIV) / Ki (TcGlcK); for LE (ligand efficiency): LE = −RTlnKi/N, N non-hydrogen atoms, TcGlcK inhibition; for fold weaker TcGlcK inhibition compared to CBZ-GlcN: ratio of Ki values
[2] = tested on: T. cruzi (Tulahuen strain) intracellular amastigotes; test: intracellular amastigote growth inhibition in NIH-3T3 fibroblasts; type: cell-based, Trypanosoma cruzi; conditions: for changes in the percent activity: at 50 μM, highest concentration tested
TbHxK = conditions: read-out: Ki, TbHxK; cited from earlier work
[3] = tested on: T. cruzi (Tulahuen strain) intracellular amastigotes; conditions: read-out: T. cruzi IC50, reported value, cited from earlier work
T. cruzi parasites = conditions: acute stage; cited from earlier work
[4] = biological target: T2, Homo sapiens hexokinase IV (HsHxKIV) (Homo sapiens, UniProt P35557); type: biochemical; conditions: read-out: KM for D-glucose, His6-HsHxKIV; truncated construct; 22 °C, pH 7.6
T2 sequence (P35557 12-457 limits assumed): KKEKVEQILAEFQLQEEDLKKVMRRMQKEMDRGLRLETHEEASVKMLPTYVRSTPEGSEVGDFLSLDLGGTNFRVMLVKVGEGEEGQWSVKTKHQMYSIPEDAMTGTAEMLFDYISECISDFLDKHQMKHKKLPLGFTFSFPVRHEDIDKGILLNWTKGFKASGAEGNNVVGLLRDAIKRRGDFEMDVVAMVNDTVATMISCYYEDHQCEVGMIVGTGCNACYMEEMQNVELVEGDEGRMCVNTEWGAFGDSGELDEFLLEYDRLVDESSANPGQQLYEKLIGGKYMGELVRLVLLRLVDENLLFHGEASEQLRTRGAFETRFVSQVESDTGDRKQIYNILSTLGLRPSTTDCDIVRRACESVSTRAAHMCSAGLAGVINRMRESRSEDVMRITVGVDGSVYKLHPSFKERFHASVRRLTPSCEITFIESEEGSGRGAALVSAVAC

[5] = tested on: T. cruzi hexokinase (TcHxK); conditions: read-out: KM for D-glucose catalysis, TcHxK; cited from earlier work
[6] = biological target: T1, T. cruzi glucokinase (TcGlcK); conditions: read-out: KM for D-glucose, TcGlcK; room temperature, pH 8.5; cited from earlier work
[7] = biological target: T2, Homo sapiens hexokinase IV (HsHxKIV); conditions: read-out: KM for D-glucose, non-His-tagged wt-HsHxKIV; cited from earlier work
[8] = ratio of amastigote IC50 values

## O=C(N[C@H]1C(O)O[C@H](CO)[C@@H](O)[C@@H]1O)OCc1ccccc1 (stereo partly drawn) [CBZ-GlcN, 2-N-carboxybenzyl-2-deoxy-D-glucosamine]
[1]
  TcGlcK selectivity ratio: 245
  LE (ligand efficiency): 0.38 kcal/mol

## O=C(N[C@H]1C(O)O[C@H](CO)[C@@H](O)[C@@H]1O)OCC1=Cc2ccccc2S1(=O)=O (stereo partly drawn) [DBT-GlcN, 2-[[1,1-dioxobenzo[b]thiophen-2-yl]methyloxocarbonylamino]-2-deoxy-D-glucosamine]
[1]
  LE (ligand efficiency): 0.27 kcal/mol
  fold weaker TcGlcK inhibition compared to CBZ-GlcN: 6 fold
[2]
  changes in the percent activity: not significant

## O=C(CCc1ccc(O)cc1)N[C@H]1C(O)O[C@H](CO)[C@@H](O)[C@@H]1O (stereo partly drawn) [HPOP-GlcN, 2-[[3-(4-hydroxyphenyl)-1-oxopropyl]amino]-2-deoxy-D-glucosamine]
[1]
  TcGlcK selectivity ratio: 186
  LE (ligand efficiency): 0.35 kcal/mol
  fold weaker TcGlcK inhibition compared to CBZ-GlcN: 1.8 fold
[2]
  changes in the percent activity: not significant

## O=C(N[C@H]1C(O)O[C@H](CO)[C@@H](O)[C@@H]1O)c1ccccc1 (stereo partly drawn) [BENZ-GlcN, 2-benzamido-2-deoxy-D-glucopyranose]
[1]
  LE (ligand efficiency): 0.30 kcal/mol
[2]; [8]
  fold weaker inhibition effect compared to amphotericin B: 34 fold
  fold weaker inhibition effect compared to benznidazole: 14 fold

## O=C(N[C@H]1C(O)O[C@H](CO)[C@@H](O)[C@@H]1O)c1cccc(Br)c1 (stereo partly drawn) [m-bromo-benzoyl glucosamine]
TbHxK
  Ki: 2800 nM

## O=C(Cn1ccnc1[N+](=O)[O-])NCc1ccccc1 [Benznidazole, N-Benzyl-2-nitro-1H-imidazole-1-acetamide]
[3]; ref 50
  IC50: 1430 nM
[3]; ref 51
  IC50: 1500 nM
T. cruzi parasites
  parasitological cures: ≤ 80%

## OC[C@H]1OC(O)[C@H](O)[C@@H](O)[C@@H]1O (stereo partly drawn) [D-glucose]
[4]
  Km: 41800 ± 8700 µM
[1]; read-out: KM for D-glucose, His6-TcGlcK, room temperature (22 °C), pH 7.6
  Km: 948 ± 295 µM
[5]
  Km: 60 µM
[6]
  Km: 1000 µM
[7]
  Km: 6000 µM

Reference: paper PMC4794339 (Molecular and biochemical parasitology, 2016)
